Some results are limits rather than exact numbers.

One assay concerns the target T1, Human TRPC6 (Homo sapiens, UniProt Q9Y210).
T1 construct: expressed in transfected cells
T1 sequence (Q9Y210 1-931): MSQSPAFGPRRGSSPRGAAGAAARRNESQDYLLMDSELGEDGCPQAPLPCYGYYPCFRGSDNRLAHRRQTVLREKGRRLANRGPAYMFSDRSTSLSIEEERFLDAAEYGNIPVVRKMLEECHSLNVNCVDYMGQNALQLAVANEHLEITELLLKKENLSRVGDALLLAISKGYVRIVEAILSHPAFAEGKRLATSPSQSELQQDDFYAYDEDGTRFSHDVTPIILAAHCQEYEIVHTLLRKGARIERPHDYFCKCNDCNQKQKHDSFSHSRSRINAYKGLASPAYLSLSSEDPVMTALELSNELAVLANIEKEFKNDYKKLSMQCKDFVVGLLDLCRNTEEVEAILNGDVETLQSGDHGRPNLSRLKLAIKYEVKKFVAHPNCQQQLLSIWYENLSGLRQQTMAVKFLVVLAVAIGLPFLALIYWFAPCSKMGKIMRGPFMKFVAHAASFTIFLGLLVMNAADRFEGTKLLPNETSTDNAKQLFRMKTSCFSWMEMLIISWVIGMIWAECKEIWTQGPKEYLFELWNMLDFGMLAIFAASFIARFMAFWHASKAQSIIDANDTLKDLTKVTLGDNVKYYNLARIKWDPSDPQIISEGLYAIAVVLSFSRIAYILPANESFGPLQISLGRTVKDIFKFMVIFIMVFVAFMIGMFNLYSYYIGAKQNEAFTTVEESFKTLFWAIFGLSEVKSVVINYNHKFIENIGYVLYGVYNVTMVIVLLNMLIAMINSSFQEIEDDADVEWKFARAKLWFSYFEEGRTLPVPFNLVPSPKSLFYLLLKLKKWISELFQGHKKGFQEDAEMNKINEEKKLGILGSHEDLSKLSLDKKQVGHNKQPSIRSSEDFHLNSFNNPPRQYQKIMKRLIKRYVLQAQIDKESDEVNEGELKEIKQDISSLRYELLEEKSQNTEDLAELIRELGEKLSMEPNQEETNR
Kind of assay: Evaluation of TRPC6 channel inhibitory activity (2), HEK293 cells with stably introduced human TRPC6, OAG stimulation, FLIPR tetra (Compound Nos. 1293 to 1405). The class given is cell-based. The conditions noted are these: HEK293 cells with stably introduced human TRPC6, OAG 50 μM/0.5% DMSO, read-out: Inhibitory activity (pIC50 class) (converted). How it is done: Evaluation of TRPC6 Channel Inhibitory Activity (2) (Compound Nos. 1293 to 1405)
The activity of the TRPC6 inhibitor was measured by stimulating HEK293 cells, in which human TRPC6 was stably introduced, with OAG (1-Oleoyl-2-acetyl-sn-glycerol, Miliipore Sigma, 06754), using the FLIPR tetra system. The cells were proliferated in a humid environment at 37° C. 5% CO2 using a growth medium (DMEM (Dulbecco's Modified Eagle's Medium) high glucose containing 10% fetal bovine serum, 1×PSGlu (penicillin-streptomycin glutamine), 1×NEAA (Non-essential amino acid), sodium pyruvate and 200 μg/mL hyglomycin. For cell subculture, the cells were proliferated to 70-90% confluence, and gently washed twice with PBS (phosphate-buffered saline) free of calcium and magnesium after removing the medium. Then, the cells were incubated at 37° C. for 5 minutes after adding trypsin (3 mL), peeled off by tapping the flask at the base of the hand, 7 mL of growth medium was added to inactivate trypsin, and then the cells were resuspended. Usually, the cells were separated every 2-3 days to become a cell density of ⅕. The day before evaluation, the cells were seeded in a poly-D-lysine (PDL) coated 384-well plate using a multi-channel pipette or multidrop at a cell density of 1.0-1.5×10^4 cells/25 μL/well. After culturing overnight in a PDL-coated 384 Blackwell plate, a fluorescent dye buffer was added first to the cells and the cells were cultured at room temperature for 90-120 minutes. For preparing 10 mL of fluorescent dye buffer, 9 mL of assay buffer, 1 mL of 10×PBX signal enhancer, and 10 μL of calcium indicator were mixed. Cells treated with the compounds of each level 25 minutes before the stimulation with OAG of TRPC6 agonist were incubated. OAG solution was prepared by adding OAG to assay buffer (Ca ringer solution base: 10 mM HEPES (4-(2-hydroxyethyl)-1-piperazine-ethanesulfonic acid), 4 mM MgCl2, 120 mM NaCl, 5 mM KCl, pH=7.2 (25° C.)+0.1% BSA+2 mM CaCl2)) to give an OAG concentration of 0.2 mM/2% DMSO. The final concentration of OAG added to the cells is 50 μM/0.5% DMSO. A volume of 12.5 μL of OAG solution was added, and activation of TRPC6 channel was measured using the FLIPR tetra system assaying the change in intracellular calcium level as an index. The 180 seconds imaging frame was defined as the background signal, and the subtraction of the background signal from the raw data was used as the fluorescence peak signal. Each fluorescence peak signal is standardized using an OAG-induced signal and buffer-induced signal as 100% and 0%, respectively. The inhibition rate obtained by plotting the peak signal after the addition of the compounds of each level was analyzed by a four-parameter logistic regression to quantify the inhibition rate in the logarithm of the inverse of the effective concentration which gives a 50% inhibition rate (pIC50). The intensity was expressed by the above-mentioned symbols (+, ++, +++).
In the case of `C[C@@H](N)c1ccc(-c2ccc(Cl)cc2Oc2cc(-c3ccccn3)nn2C)nc1` [compound 1380, (1R)-1-[6-[4-chloro-2-(2-methyl-5-pyridin-2-ylpyrazol-3-yl)oxyphenyl]pyridin-3-yl]ethanamine], the IC50 was less than 10 nM. The same measure, in the same setting: with `Cn1nc(-c2ccccn2)cc1Oc1cc(C#N)ccc1-c1ccc(CN)c(Cl)n1` [compound 1334, 4-[5-(aminomethyl)-6-chloropyridin-2-yl]-3-(2-methyl-5-pyridin-2-ylpyrazol-3-yl)oxybenzonitrile] the figure was less than 10 nM; with `Cn1nc(-c2ccccn2)cc1Oc1cc(Cl)ccc1-c1ncc([C@H](O)CN)cn1` [compound 1358, (1S)-2-amino-1-[2-[4-chloro-2-(2-methyl-5-pyridin-2-ylpyrazol-3-yl)oxyphenyl]pyrimidin-5-yl]ethanol], 10 to 1000 nM; with `Cn1nc(C2CCOCC2)cc1Oc1cc(Cl)cnc1-c1ccc(C(F)(F)CN)cn1` [compound 1399, 2-[6-[5-chloro-3-[2-methyl-5-(oxan-4-yl)pyrazol-3-yl]oxypyridin-2-yl]pyridin-3-yl]-2,2-difluoroethanamine], more than 1000 nM. On the same count and under the same terms, with `Cn1nc(C2CC2)cc1Oc1cc(Cl)cnc1-c1ccc([C@@H](F)CN)cn1` [compound 1370, (2R)-2-[6-[5-chloro-3-(5-cyclopropyl-2-methylpyrazol-3-yl)oxypyridin-2-yl]pyridin-3-yl]-2-fluoroethanamine] the figure was 10 to 1000 nM.

A further assay has as its target T1, Human TRPC6. The assay is described as follows: Evaluation of TRPC6 channel inhibitory activity (1), FLIPR Calcium 5 Assay Kit, OAG stimulation (Compound Nos. 1-1293). In kind it is cell-based. The conditions noted are these: Human TRPC6 stably-expressing cells, OAG 30 μM, FLIPR Calcium 5 Assay Kit; read-out: Inhibitory activity (pIC50 class) (converted). The procedure, abridged:
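Calcium influx read by FLIPR fluorescence in cells stably expressing human TRPC6, dye-loaded 30 min. Compounds preincubated 20 min, then OAG stimulation at 30 μM final. Inhibition fitted by four-parameter logistic regression to give pIC50, reported as +/++/+++ categories.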
Regarding `N#Cc1ccc(-c2ccc(CCN)cc2)c(C(=O)c2cnc(N3CCOCC3)o2)c1` [compound 1081, 4-[4-(2-aminoethyl)phenyl]-3-(2-morpholin-4-yl-1,3-oxazole-5-carbonyl)benzonitrile], the IC50 was 10 to 1000 nM.

On to `CC(C)Cn1cc(Cc2cc(F)ccc2-c2ncc(CCN)cn2)cn1` [compound 1222, 2-[2-[4-fluoro-2-[[1-(2-methylpropyl)pyrazol-4-yl]methyl]phenyl]pyrimidin-5-yl]ethanamine], for which the IC50 is 10 to 1000 nM.

As for `CCN(CC)c1cc(Oc2cc(F)ccc2-c2ncc(CCN)cn2)n(C)n1` [compound 972, 5-[2-[5-(2-aminoethyl)pyrimidin-2-yl]-5-fluorophenoxy]-N,N-diethyl-1-methylpyrazole-3-amine], the IC50 is less than 10 nM.

As for `Cc1nc(OCC2(C)CC2)cc(Oc2cc(C#N)ccc2-c2ccc(CCN)cc2)n1` [Compound 49, 4-[4-(2-aminoethyl)phenyl]-3-[2-methyl-6-[(1-methylcyclopropyl)methoxy]pyrimidin-4-yl]oxybenzonitrile], the IC50 is 10 to 1000 nM. As for `N#Cc1ccc(-c2ncc(CCN)cn2)c(Oc2cnn(-c3ccccn3)c2)c1` [compound 912, 4-[5-(2-aminoethyl)pyrimidin-2-yl]-3-(1-pyridin-2-ylpyrazol-4-yl)oxybenzonitrile], the IC50 was less than 10 nM. For the compound `Cn1nc(C2CC2)cc1Oc1cc(C#N)ccc1-c1nnc(CN)s1` [compound 582, 4-[5-(aminomethyl)-1,3,4-thiadiazol-2-yl]-3-(5-cyclopropyl-2-methylpyrazol-3-yl)oxybenzonitrile], the IC50 is more than 1000 nM. Regarding `Cn1nc(C2CC2)cc1Oc1cc(C#N)ccc1-c1ccc(CN)nc1` [compound 331, 4-[6-(aminomethyl)pyridin-3-yl]-3-(5-cyclopropyl-2-methylpyrazol-3-yl)oxybenzonitrile], the IC50 is 10 to 1000 nM. Same read-out and setting: next, `Cc1nnc(N2CCCC2)cc1Oc1cc(C#N)ccc1-c1ncc(CN)cn1` [compound 824, 4-[5-(aminomethyl)pyrimidin-2-yl]-3-(3-methyl-6-pyrrolidin-1-ylpyridazin-4-yl)oxybenzonitrile]: 10 to 1000 nM; `N#Cc1ccc(-c2ncc(CCN)cn2)c(Oc2cnn(CC(F)(F)F)c2)c1` [compound 911, 4-[5-(2-aminoethyl)pyrimidin-2-yl]-3-[1-(2,2,2-trifluoroethyl)pyrazol-4-yl]oxybenzonitrile]: 10 to 1000 nM; `CC(C)n1nc(C2CC2)cc1Oc1cc(C#N)ccc1-c1ccc([C@@H](O)CN)cn1` [compound 382, 4-[5-[(1R)-2-amino-1-hydroxyethyl]pyridin-2-yl]-3-(5-cyclopropyl-2-propan-2-ylpyrazol-3-yl)oxybenzonitrile]: less than 10 nM.

Regarding `N#Cc1ccc(-c2ncc(C(O)CN)s2)c(Oc2cnnc(-c3ccccc3)c2)c1` (stereo not shown) [Compound 246, 4-[5-(2-amino-1-hydroxyethyl)-1,3-thiazol-2-yl]-3-(6-phenylpyridazin-4-yl)oxybenzonitrile], the IC50 is less than 10 nM. The same measure, in the same setting: next, `N#Cc1ccc(-c2ccc(CN)cn2)c(Oc2cnnc(C3CC3)c2)c1` [compound 695, 4-[5-(aminomethyl)pyridin-2-yl]-3-(6-cyclopropylpyridazin-4-yl)oxybenzonitrile]: less than 10 nM; `Cc1nc(CNC(C)C)cn1Cc1cc(C#N)ccc1-c1ncc(CCN)cn1` [compound 1181, 4-[5-(2-aminoethyl)pyrimidin-2-yl]-3-[[2-methyl-4-[(propan-2-ylamino)methyl]imidazol-1-yl]methyl]benzonitrile]: more than 1000 nM. On the same count and under the same terms, next, `COc1cc(-c2ccc(C#N)cc2Oc2cc(N3CCOCC3)nc(C)n2)ccc1C(O)CN` (stereo not shown) [Compound 156, 4-[4-(2-amino-1-hydroxyethyl)-3-methoxyphenyl]-3-(2-methyl-6-morpholin-4-ylpyrimidin-4-yl)oxybenzonitrile]: 10 to 1000 nM.

Turning to `N#Cc1ccc(-c2ncc(CN)cn2)c(Oc2nnc(-c3ccccc3)s2)c1` [compound 705, 4-[5-(aminomethyl)pyrimidin-2-yl]-3-[(5-phenyl-1,3,4-thiadiazol-2-yl)oxy]benzonitrile], the IC50 was 10 to 1000 nM. The same measure, in the same setting: with `Cc1nc(CN2CCCCC2)cn1Cc1cc(C#N)ccc1-c1ncc(CCN)cn1` [Compound No. 1179, 4-[5-(2-Aminoethyl)pyrimidin-2-yl]-3-[[2-methyl-4-(piperidin-1-ylmethyl)imidazol-1-yl]methyl]benzonitrile] the figure was more than 1000 nM. `CC(C)Cc1cc(Oc2cc(C#N)ccc2-c2ccc(CCN)cc2)n(C)n1` [Compound 211, 4-[4-(2-aminoethyl)phenyl]-3-[2-methyl-5-(2-methylpropyl)pyrazol-3-yl]oxybenzonitrile]: the IC50 is less than 10 nM.

These data come from patent US20230167073A1 (Teijin Pharma Limited, priority 2020, published 2023).
